Reference: patent US12583884B2, “3beta-(benzyloxy)-17alpha-methyl-pregn-5-en-20-one for use in the treatment of cognitive disorders” (AELIS FARMA, priority 2018, dated 2026)
Where two headings read alike, the source gives them in different places. One block for each molecule: values may come before it.

Experiments:
[1] = tested on: Steroid nuclear receptors ER; assay: Binding: ER; conditions: 10 μM
Excerpt: (§1) The CEREP High-throughput profile consists of a broad collection of 80 transmembrane and soluble receptors, ion channels and G-Protein coupled receptors.

[2] = target: Opioid and opioid-like delta2 (DOP) (Homo sapiens, UniProt P41143); assay: CEREP binding profile: delta2; conditions: 10 μM
Sequence of Opioid and opioid-like delta2 (DOP) (P41143 whole entry): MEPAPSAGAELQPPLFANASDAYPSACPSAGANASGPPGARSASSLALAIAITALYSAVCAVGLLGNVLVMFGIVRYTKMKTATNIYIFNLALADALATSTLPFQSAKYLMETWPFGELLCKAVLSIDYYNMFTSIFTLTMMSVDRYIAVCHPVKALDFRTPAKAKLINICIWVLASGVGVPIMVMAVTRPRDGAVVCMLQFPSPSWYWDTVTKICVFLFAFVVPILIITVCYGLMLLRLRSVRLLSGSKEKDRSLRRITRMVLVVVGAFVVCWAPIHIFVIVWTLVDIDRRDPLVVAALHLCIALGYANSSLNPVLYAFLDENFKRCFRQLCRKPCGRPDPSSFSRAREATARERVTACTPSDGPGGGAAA
Excerpt: as §1

[3] = target: T1, Cholecystokinin CCK2 (CCKB) (Homo sapiens, UniProt P32239); assay: CEREP binding profile: CCK2
T1 construct: CEREP
Excerpt: as §1

[4] = target: Galanin GAL2 (Homo sapiens, UniProt O43603); assay: CEREP binding profile: GAL2
Excerpt: as §1

[5] = tested on: GABA; assay: CEREP binding profile: GABA; conditions: 10 μM
Excerpt: as §1

[6] = target: T2, Adenosine A2A (Homo sapiens, UniProt P29274); assay: CEREP binding profile: A2A
T2 construct: CEREP
Excerpt: as §1

[7] = tested on: Adrenergic alpha2; assay: CEREP binding profile: alpha2; conditions: 10 μM
Excerpt: as §1

[8] = target: Prostanoid EP2 (Homo sapiens, UniProt P43116); assay: CEREP binding profile: EP2
Excerpt: as §1

[9] = target: T3, Dopamine D3 (Homo sapiens, UniProt P35462); assay: CEREP binding profile: D3
T3 construct: CEREP
Excerpt: as §1

[10] = target: Opioid and opioid-like NOP (ORL1) (Homo sapiens, UniProt P41146); assay: CEREP binding profile: NOP; conditions: 10 μM
Sequence of Opioid and opioid-like NOP (ORL1) (P41146 whole entry, species assumed): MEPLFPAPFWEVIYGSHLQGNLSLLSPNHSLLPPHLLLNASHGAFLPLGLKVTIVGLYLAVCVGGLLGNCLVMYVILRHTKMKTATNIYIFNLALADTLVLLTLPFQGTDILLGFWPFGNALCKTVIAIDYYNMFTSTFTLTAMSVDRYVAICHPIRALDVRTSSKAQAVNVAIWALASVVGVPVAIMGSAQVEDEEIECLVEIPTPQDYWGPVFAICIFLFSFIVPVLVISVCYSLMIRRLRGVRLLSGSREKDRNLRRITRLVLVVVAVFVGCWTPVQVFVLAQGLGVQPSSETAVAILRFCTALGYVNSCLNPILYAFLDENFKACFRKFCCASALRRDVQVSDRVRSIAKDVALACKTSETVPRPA
Excerpt: as §1

[11] = target: T4, Cannabinoid CB2 (Homo sapiens, UniProt P34972); assay: Binding: CB2
T4 construct: CEREP
T4 sequence (P34972 whole entry): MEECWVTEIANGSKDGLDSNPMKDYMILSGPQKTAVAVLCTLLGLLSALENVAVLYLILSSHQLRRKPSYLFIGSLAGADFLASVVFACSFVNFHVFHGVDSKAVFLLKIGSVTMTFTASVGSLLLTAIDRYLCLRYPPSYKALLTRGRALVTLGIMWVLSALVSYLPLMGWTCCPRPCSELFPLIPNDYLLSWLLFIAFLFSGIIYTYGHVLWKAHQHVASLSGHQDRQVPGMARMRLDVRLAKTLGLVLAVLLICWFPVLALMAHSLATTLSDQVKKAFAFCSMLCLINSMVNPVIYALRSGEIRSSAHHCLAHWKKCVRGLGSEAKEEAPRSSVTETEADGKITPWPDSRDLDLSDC
Excerpt: as §1

[12] = target: T5, Benzodiazepine BZD (periph) (Rattus norvegicus, UniProt P16257); assay: CEREP binding profile: BZD (periph)
T5 construct: CEREP (contract panel)
Excerpt: as §1

[13] = target: T6, Cholecystokinin CCK1 (CCKA) (Homo sapiens, UniProt P32238); assay: CEREP binding profile: CCK1
T6 construct: CEREP
T6 sequence (P32238 whole entry): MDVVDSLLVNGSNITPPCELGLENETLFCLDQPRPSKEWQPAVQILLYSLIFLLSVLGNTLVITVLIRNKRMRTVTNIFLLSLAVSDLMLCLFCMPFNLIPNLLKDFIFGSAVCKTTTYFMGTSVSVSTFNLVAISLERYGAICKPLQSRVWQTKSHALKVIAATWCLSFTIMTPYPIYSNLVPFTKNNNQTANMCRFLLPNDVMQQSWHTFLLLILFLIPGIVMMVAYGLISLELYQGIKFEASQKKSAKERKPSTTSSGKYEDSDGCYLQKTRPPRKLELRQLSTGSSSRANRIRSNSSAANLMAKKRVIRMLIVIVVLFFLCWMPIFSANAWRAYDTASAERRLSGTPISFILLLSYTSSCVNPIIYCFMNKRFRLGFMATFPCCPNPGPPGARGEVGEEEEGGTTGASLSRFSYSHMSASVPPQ
Excerpt: as §1

[14] = target: T7, Serotonin 5-HT1B (Rattus norvegicus, UniProt P28564); assay: CEREP binding profile: 5-HT1B
T7 construct: CEREP (contract panel)
T7 sequence (P28564 whole entry): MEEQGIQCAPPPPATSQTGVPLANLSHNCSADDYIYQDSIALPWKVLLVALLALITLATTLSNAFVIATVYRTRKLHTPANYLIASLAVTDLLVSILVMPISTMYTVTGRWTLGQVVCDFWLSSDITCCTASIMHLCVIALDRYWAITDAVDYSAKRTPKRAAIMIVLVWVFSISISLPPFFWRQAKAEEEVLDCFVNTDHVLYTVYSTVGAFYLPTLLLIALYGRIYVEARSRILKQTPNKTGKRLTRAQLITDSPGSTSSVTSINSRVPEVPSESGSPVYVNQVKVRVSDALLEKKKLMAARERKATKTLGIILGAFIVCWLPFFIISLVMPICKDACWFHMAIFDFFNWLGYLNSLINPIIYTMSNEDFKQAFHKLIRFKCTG
Excerpt: as §1

[15] = target: Neuropetide Y N1 (Homo sapiens, UniProt P25929); assay: CEREP binding profile: N1
Excerpt: as §1

[16] = target: Opioid and opioid-like mu (MOP) (Homo sapiens, UniProt P35372); assay: CEREP binding profile: mu; conditions: 10 μM
Excerpt: as §1

[17] = target: T8, Dopamine D2S (Homo sapiens, UniProt P14416); assay: CEREP binding profile: D2S
T8 construct: CEREP
T8 sequence (P14416 1-414 isoform P14416-2): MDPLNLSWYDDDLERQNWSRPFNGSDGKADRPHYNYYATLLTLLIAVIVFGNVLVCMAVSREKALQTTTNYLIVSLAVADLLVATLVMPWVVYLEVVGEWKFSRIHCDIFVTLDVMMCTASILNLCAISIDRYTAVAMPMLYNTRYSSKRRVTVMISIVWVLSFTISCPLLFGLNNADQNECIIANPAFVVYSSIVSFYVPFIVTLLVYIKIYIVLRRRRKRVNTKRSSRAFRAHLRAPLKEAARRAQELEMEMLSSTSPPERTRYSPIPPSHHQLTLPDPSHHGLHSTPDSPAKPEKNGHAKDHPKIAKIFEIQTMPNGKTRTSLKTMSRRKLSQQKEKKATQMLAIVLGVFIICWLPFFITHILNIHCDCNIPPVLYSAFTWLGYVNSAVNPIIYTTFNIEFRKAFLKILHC
Excerpt: as §1

[18] = target: T9, Adenosine A3 (Homo sapiens, UniProt P0DMS8); assay: CEREP binding profile: A3
T9 construct: CEREP
T9 sequence (P0DMS8 whole entry): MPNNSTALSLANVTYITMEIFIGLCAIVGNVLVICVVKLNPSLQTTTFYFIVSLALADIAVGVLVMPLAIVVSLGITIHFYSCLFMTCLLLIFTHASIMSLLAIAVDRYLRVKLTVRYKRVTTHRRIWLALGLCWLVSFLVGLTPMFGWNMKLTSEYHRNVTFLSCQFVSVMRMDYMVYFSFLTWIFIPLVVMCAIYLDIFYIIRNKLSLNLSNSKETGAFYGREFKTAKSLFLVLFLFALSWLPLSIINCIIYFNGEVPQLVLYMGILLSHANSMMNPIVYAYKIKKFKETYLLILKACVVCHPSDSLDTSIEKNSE
Excerpt: as §1

[19] = target: Muscarinic M5 (Homo sapiens, UniProt P08912); assay: CEREP binding profile: M5
Excerpt: as §1

[20] = tested on: GABA BZD (central); assay: CEREP binding profile: BZD (central); conditions: 10 μM
Excerpt: as §1

[21] = target: T10, Transporters Serotonin 5-HT trans. (Homo sapiens, UniProt P31645); assay: CEREP binding profile: 5-HT trans.
T10 construct: CEREP (contract panel)
Excerpt: as §1

[22] = target: Muscarinic M3 (Homo sapiens, UniProt P20309); assay: CEREP binding profile: M3
Excerpt: as §1

[23] = target: Galanin GAL1 (Homo sapiens, UniProt P47211); assay: CEREP binding profile: GAL1
Excerpt: as §1

[24] = target: Histamine H1 (Homo sapiens, UniProt P35367); assay: CEREP binding profile: H1
Excerpt: as §1

[25] = target: T11, Calcitonin gene-related CGRP (Homo sapiens, UniProt O60894+Q16602); assay: CEREP binding profile: CGRP
T11 construct: CEREP
Excerpt: as §1

[26] = target: T12, Serotonin 5-HT2A (Homo sapiens, UniProt P28223); assay: CEREP binding profile: 5-HT2A
T12 construct: CEREP (contract panel)
Excerpt: as §1

[27] = target: Neuropetide Y Y2 (Homo sapiens, UniProt P49146); assay: CEREP binding profile: Y2
Sequence of Neuropetide Y Y2 (P49146 whole entry): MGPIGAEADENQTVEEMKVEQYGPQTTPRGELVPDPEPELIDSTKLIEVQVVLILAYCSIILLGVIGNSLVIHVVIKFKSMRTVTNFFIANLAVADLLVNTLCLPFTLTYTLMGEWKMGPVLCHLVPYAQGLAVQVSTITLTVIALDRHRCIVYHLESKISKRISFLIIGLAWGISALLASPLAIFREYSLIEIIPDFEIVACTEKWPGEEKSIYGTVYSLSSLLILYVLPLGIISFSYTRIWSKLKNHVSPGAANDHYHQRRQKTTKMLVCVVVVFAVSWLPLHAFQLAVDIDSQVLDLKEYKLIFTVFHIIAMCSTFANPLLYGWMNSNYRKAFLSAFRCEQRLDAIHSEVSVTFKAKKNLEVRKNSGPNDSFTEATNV
Excerpt: as §1

[28] = target: T13, Serotonin 5-HT6 (Homo sapiens, UniProt P50406); assay: CEREP binding profile: 5-HT6
T13 construct: CEREP (contract panel)
Excerpt: as §1

[29] = target: PXR (non-steroid nuclear receptor) (Homo sapiens, UniProt O75469); assay: in vitro
Excerpt: as §1

[30] = tested on: Ca2+ channels Ca2+-L; assay: CEREP binding profile: Ca2+-L; conditions: 10 μM
Excerpt: as §1

[31] = target: T14, Serotonin 5-HT2B (Homo sapiens, UniProt P41595); assay: CEREP binding profile: 5-HT2B
T14 construct: CEREP (contract panel)
Excerpt: as §1

[32] = tested on: Adrenergic alpha1; assay: CEREP binding profile: alpha1; conditions: 10 μM
Excerpt: as §1

[33] = target: Prostanoid IP (PGI2) (Homo sapiens, UniProt P43119); assay: CEREP binding profile: IP
Sequence of Prostanoid IP (PGI2) (P43119 whole entry): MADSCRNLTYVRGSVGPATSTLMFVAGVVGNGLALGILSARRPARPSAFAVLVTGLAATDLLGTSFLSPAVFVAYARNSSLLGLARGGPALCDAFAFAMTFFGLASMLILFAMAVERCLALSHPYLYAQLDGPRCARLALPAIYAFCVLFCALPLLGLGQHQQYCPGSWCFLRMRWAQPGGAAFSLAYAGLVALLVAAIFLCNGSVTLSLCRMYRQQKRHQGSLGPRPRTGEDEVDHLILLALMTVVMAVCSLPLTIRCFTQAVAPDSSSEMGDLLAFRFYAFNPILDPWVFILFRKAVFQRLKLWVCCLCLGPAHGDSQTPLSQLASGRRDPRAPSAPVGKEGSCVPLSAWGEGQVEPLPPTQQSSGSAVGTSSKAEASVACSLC
Excerpt: as §1

[34] = target: T15, Dopamine D1 (Homo sapiens, UniProt P21728); assay: CEREP binding profile: D1
T15 construct: CEREP
Excerpt: as §1

[35] = target: Melanocortin MC4 (Homo sapiens, UniProt P32245); assay: CEREP binding profile: MC4
Sequence of Melanocortin MC4 (P32245 whole entry): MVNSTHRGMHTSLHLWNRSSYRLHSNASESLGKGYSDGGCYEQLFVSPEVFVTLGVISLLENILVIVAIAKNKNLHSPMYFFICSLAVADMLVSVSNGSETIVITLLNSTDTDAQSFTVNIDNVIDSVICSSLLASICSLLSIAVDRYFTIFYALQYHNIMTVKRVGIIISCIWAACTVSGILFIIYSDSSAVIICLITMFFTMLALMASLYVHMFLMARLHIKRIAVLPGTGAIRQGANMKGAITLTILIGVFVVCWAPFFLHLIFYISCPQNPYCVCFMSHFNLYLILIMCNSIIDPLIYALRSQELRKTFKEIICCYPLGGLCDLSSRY
Excerpt: as §1

[36] = target: T16, Adrenergic beta1 (Homo sapiens, UniProt P08588); assay: CEREP binding profile: beta1
T16 construct: CEREP
Excerpt: as §1

[37] = tested on: Cytokines TNF-alpha; assay: CEREP binding profile: TNF-alpha; conditions: 10 μM
Excerpt: as §1

[38] = target: Neurokinin NK2 (Homo sapiens, UniProt P21452); assay: CEREP binding profile: NK2
Sequence of Neurokinin NK2 (P21452 whole entry): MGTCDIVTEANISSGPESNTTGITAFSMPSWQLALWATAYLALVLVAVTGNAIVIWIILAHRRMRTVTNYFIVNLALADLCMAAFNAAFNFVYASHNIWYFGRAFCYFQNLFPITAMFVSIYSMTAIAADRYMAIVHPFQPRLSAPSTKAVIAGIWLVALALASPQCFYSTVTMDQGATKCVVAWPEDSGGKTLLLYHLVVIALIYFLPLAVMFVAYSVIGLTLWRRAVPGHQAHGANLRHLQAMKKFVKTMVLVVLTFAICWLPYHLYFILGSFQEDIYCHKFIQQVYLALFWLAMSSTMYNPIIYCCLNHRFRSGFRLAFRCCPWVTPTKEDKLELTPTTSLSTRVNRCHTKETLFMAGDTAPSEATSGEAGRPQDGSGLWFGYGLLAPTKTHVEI
Excerpt: as §1

[39] = tested on: Somatostatin sst; assay: CEREP binding profile: sst; conditions: 10 μM
Excerpt: as §1

[40] = target: Neurokinin NK3 (Homo sapiens, UniProt P29371); assay: CEREP binding profile: NK3
Sequence of Neurokinin NK3 (P29371 whole entry): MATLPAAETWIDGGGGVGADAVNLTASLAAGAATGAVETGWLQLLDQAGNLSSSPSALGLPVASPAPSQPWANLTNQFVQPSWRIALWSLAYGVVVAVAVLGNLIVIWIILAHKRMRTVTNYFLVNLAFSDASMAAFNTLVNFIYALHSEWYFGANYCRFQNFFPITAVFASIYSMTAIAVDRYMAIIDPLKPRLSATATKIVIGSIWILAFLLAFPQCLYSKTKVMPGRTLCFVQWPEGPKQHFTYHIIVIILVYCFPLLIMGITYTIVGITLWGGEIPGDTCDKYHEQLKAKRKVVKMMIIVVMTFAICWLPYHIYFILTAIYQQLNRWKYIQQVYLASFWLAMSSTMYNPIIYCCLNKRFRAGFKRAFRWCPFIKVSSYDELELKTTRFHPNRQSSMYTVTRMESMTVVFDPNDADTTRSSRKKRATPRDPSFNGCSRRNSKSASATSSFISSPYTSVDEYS
Excerpt: as §1

[41] = target: T17, Dopamine D4.4 (Homo sapiens, UniProt P21917); assay: CEREP binding profile: D4.4
T17 construct: CEREP
Excerpt: as §1

Compound: CC(=O)[C@@]1(C)CC[C@H]2[C@@H]3CC=C4C[C@@H](OCc5ccccc5)CC[C@]4(C)[C@H]3CC[C@@]21C [3Bn17MeP, 3β-benzyloxy, 17α-methyl-pregn-5-en-20-one]
Inhibition % [1]: −5%
% Inhibition [2]: −3%
inhibition at 10 µM [3]: -21%
inhibition at 10 µM [4]: -11%
Inhibition % [5]: 10%
inhibition at 10 µM [6]: -6%
% Inhibition [7]: −1%
inhibition at 10 µM [8]: 19%
% Inhibition ([9]; 10 μM): −2%
% Inhibition [10]: 2%
inhibition at 10 µM [11]: 2%
inhibition at 10 µM [12]: 1%
inhibition at 10 µM [13]: 2%
% Inhibition ([14]; 10 μM): −15%
inhibition at 10 µM [15]: -32%
% Inhibition [16]: −4%
% Inhibition ([17]; 10 μM): 6%
inhibition at 10 µM [18]: 1%
inhibition at 10 µM [19]: 0%
Inhibition % [20]: −16%
inhibition at 10 µM [21]: 1%
inhibition at 10 µM [22]: 16%
inhibition at 10 µM [23]: -26%
inhibition at 10 µM [24]: 3%
inhibition at 10 µM [25]: -15%
inhibition at 10 µM [26]: -8%
inhibition at 10 µM [27]: -6%
% Inhibition ([28]; 10 μM): −1%
inhibition at 10 µM [29]: -8%
% Inhibition [30]: 12%
% Inhibition ([31]; 10 μM): 16%
% Inhibition [32]: 5%
inhibition at 10 µM [33]: 0%
% Inhibition ([34]; 10 μM): −10%
inhibition at 10 µM [35]: -10%
% Inhibition ([36]; 10 μM): 7%
Inhibition % [37]: 4%
inhibition at 10 µM [38]: -12%
% Inhibition [39]: −6%
inhibition at 10 µM [40]: 7%
% Inhibition ([41]; 10 μM): −10%

Inhibition % [1]: 26%
% Inhibition [2]: 9%
inhibition at 10 µM [3]: -38%
inhibition at 10 µM [4]: 1%
Inhibition % [5]: 10%
inhibition at 10 µM [6]: -1%
% Inhibition [7]: −2%
inhibition at 10 µM [8]: 24%
inhibition at 10 µM [9]: 11%
% Inhibition [10]: 2%
inhibition at 10 µM ([11]; CB2, 10 μM, read-out: % Inhibition): -19%
Inhibition % ([12]; BZD (periph), 10 μM): 42%
inhibition at 10 µM ([12]; BZD (periph), 10 μM, read-out: Inhibition %): > 40%
inhibition at 10 µM [13]: -30%
inhibition at 10 µM [14]: -28%
inhibition at 10 µM [15]: -11%
% Inhibition [16]: −5%
inhibition at 10 µM [17]: 5%
inhibition at 10 µM [18]: 11%
inhibition at 10 µM ([19]; M5, 10 μM, read-out: % Inhibition): 8%
Inhibition % [20]: > 40%
Inhibition % ([20]; listed as PREG): −43%
inhibition at 10 µM ([21]; 5-HT trans., 10 μM, read-out: % Inhibition): 1%
inhibition at 10 µM ([22]; M3, 10 μM, read-out: % Inhibition): 2%
inhibition at 10 µM [23]: -16%
inhibition at 10 µM [24]: 0%
inhibition at 10 µM [25]: -12%
inhibition at 10 µM ([26]; 5-HT2A, 10 μM, read-out: % Inhibition): -1%
inhibition at 10 µM [27]: -9%
inhibition at 10 µM [28]: 5%
inhibition at 10 µM ([29]; PXR receptor binding assay (ligand displacement)): 15%
% Inhibition [30]: −19%
inhibition at 10 µM [31]: -38%
% Inhibition [32]: 1%
inhibition at 10 µM [33]: -12%
inhibition at 10 µM [34]: -8%
inhibition at 10 µM [35]: -15%
inhibition at 10 µM [36]: 4%
Inhibition % [37]: 4%
inhibition at 10 µM [38]: -1%
% Inhibition [39]: −8%
inhibition at 10 µM [40]: 11%
inhibition at 10 µM [41]: 20%
Compound: CC(=O)[C@H]1CC[C@H]2[C@@H]3CC=C4C[C@@H](O)CC[C@]4(C)[C@H]3CC[C@]12C [pregnenolone, reference compound]
